Data published in patent publication EP1159267B1, “N-SUBSTITUTED INDOLINES AS ESTROGENIC AGENTS” (Wyeth, priority 1999, dated 2000).
Counter-ions that a name gives are not always drawn.

Target: T1, estrogen receptor (ER) (Homo sapiens, UniProt P03372)
T1 construct: expressed in transfected cells; host or cells: CHO cells (ribosome-free cytosol)
T1 sequence (P03372 1-595): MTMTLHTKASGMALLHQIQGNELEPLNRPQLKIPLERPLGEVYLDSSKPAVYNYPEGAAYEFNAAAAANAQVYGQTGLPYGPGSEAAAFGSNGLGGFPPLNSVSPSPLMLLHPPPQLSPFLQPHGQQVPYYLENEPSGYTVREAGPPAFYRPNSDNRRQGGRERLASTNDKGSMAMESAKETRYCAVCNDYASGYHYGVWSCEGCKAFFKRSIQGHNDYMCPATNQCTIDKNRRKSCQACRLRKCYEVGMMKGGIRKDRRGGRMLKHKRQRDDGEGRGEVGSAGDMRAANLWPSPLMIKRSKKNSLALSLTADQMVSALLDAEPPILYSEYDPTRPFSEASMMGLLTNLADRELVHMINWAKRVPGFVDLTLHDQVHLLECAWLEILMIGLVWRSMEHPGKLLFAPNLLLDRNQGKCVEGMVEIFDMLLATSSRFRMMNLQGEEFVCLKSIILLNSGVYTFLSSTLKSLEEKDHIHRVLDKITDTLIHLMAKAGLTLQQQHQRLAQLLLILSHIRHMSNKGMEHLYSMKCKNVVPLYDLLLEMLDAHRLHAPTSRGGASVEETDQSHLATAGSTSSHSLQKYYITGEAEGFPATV
Assay: Receptor Binding Assay (competition with [3H]17β-estradiol)
Details: cytosol of CHO cells overexpressing the estrogen receptor; 0.8 nM [3H]17β-estradiol; 12 competitor concentrations; room temperature, 2.5 h

## CC1(C)c2cc(O)ccc2N(Cc2ccc(OCCN3CCCCC3)cc2)C1c1ccc(O)cc1 (stereo not shown) [Example No. 9, 2-(4-Hydroxy-phenyl)-3,3-dimethyl-1-[4-(2-piperidin-1-yl-ethoxy)-benzyl]-2,3-dihydro-1H-indol-5-ol]
  IC50: 310 nM

## CC1(C)c2cc(O)ccc2N(Cc2ccc(OCCN3CCCCCC3)cc2)C1(c1ccccc1)c1ccc(O)cc1 (stereo not shown) [Example No. 11, 1-[4-(2-Azepan-1-yl-ethoxy)-benzyl]-2-(4-hydroxy-phenyl)-3,3-dimethyl-2-Phenyl-2,3-dihydro-1H-indol-5-ol]
  IC50: 350 nM

## CC1(C)c2cc(O)ccc2N(Cc2ccc(OCCN3CCCCC3)cc2)C1c1ccccc1 (stereo not shown) [Example No. 4, 3,3-dimethyl-2-phenyl-1-[4-(2-piperidin-1-yl-ethoxy)-benzyl]-2,3-dihydro-1H-indol-5-ol (HCl)]
  IC50: 800 nM

## CC1(C)c2cc(O)ccc2N(Cc2ccc(OCCN3CCCCCC3)cc2)C1c1ccccc1 (stereo not shown) [Example No. 6, 1-[4-(2-Azepan-1-yl-ethoxy)-benzyl]-3,3-dimethyl-2-phenyl-2,3-dihydro-1H-indol-5-ol]
  IC50: 1000 nM
